In US5229409A, “6-substituted-tetrahydrobenz[cd]indoles” (Eli Lilly and Company, priority 1991, dated 1993):

Legend:
[1] = target: T1, 5-HT1D receptor (Bos taurus, UniProt F1MGM3); assay: [3H]5-HT binding to 5-HT1D sites in caudate nuclei membranes; conditions: bovine caudate membranes, [3H]5-HT 1.7-1.9 nM, pH 7.4, 37° C
T1 construct: the caudate nuclei were dissected out and frozen at -70° C; tissue Pel-Freeze Biologicals; host or cells: bovine caudate nuclei, washed membranes
Experimental: The affinities of the compounds at the central 5-HT1D binding sites were determined using a modification of the binding assay described by Heuring and Peroutka (J. Neurosci. 7:894-903, 1987). Bovine brains were obtained from Pel-Freeze Biologicals, and the caudate nuclei were dissected out and frozen at -70° C. until the time that the membranes were prepared for the binding assays. At that time the tissues were homogenized in 40 volumes of ice-cold Tris-HCl buffer (50 mM, pH 7.4 at 22° C.) with a Techmar Tissumizer (setting 65 for 15 sec), and the homogenate was centrifuged at 39,800 g for 10 min. The resulting pellet was then resuspended in the same buffer, and the centrifugation and resuspension process was repeated three additional times to wash the membranes. Between the second and third washes the resuspended membranes were incubated for 10 min at 37° C. to facilitate the removal of endogenous 5-HT. the final pellet was resuspended in Tris buffer to a concentration of 25 mg of original tissue wet weight/ml for use in the binding assay. […] The assay tubes were incubated for 10 min at 37° C., and the contents were then rapidly filtered through GF/B filters (pretreated with 0.5% polyethylenimine), followed by four one-mL washes with ice-cold buffer. The radioactivity trapped by the filters was quantitated by liquid scintillation spectrometry, and specific [^3 H]5-HT binding to the 5HT1D sites were defined as the difference between [^3 H]5-HT bound in the presence and absence of 10 μM 5-HT.
The affinities of compounds at the 5-HT1D receptor are expressed as IC50 values, i.e., the concentration required to inhibit 50% of the binding. These values were determined from 12-point competition curves using nonlinear regression (SYSTAT, SYSTAT, Inc. Evanston, Ill.).

[2] = target: T2, 5-HT1A receptor (Rattus norvegicus, UniProt P19327); assay: [3H]8-OH-DPAT binding to 5-HT1A sites in hippocampal membranes; set-up: species or system rat (male Sprague-Dawley); conditions: [3H]8-OH-DPAT 1.0 nM, pH 7.4, 37° C
T2 construct: the brains were rapidly chilled and dissected to obtain the hippocampi; from tissue; host or cells: hippocampi of male Sprague-Dawley rats (150-250 g), washed membranes
T2 sequence (P19327 1-422): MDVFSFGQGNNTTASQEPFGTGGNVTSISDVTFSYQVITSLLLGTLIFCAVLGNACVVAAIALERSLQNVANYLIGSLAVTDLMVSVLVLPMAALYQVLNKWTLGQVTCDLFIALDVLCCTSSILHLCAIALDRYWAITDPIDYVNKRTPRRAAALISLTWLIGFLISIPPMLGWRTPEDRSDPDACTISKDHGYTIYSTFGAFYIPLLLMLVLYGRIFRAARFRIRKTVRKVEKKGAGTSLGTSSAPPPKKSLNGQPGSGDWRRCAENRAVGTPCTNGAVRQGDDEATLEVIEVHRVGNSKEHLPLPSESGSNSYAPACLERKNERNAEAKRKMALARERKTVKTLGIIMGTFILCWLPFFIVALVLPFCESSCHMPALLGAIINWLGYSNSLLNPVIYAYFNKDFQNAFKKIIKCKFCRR
Experimental: The affinities of the compounds at the central […] described by Taylor, et al., (J. Pharmacol. Exp. Ther. 236:118-125, 1986). Membranes for the binding assay were prepared from male Sprague-Dawley rats (150-250 g). The animals were killed by decapitation, and the brains were rapidly chilled and dissected to obtain the hippocampi. The hippocampi were either prepared that day or stored frozen (-70° C.) until the day of preparation. Membranes were prepared by homogenizing the tissue in 40 volumes of ice-cold Tris-HCl buffer (50 mM, pH 7.4 at 22° C.) using a Techmar Tissumizer (setting 65 for 15 sec), and the homogenate was centrifuged at 39800 xg for 10 min. The resulting pellet then resuspended in the same buffer, and the centrifugation and resuspension process was repeated three additional times to wash the membranes. Between the second and third washes the resuspended membranes were incubated for 10 min at 37° C. to facilitate the removal of endogenous ligands. The final pellet was resuspended in 67 mM Tris-HCl, pH 7.4, to a concentration of 2 mg of tissue original wet weight/200 μl. This homogenate was stored frozen (-70° C.) until the day of the binding assay. […] The assay tubes were incubated for 10 min at 37° C, and the contents were then rapidly filtered through GF/B filters (pretreated with 0.5% polyethylenimine), followed by four one-mL washes with ice cold buffer. The radioactivity trapped by the filters was quantitated by liquid scintillation spectrometry, and specific [^3 H]8-OH-DPAT binding to the 5-HT1A sites was defined as the difference between [^3 H]8-OH-DPAT bound in the presence and absence of 10 μM 5-HT.
The affinity of the particular compound at the 5-HT1A receptor is expressed as IC50 value, i.e., the concentration required to inhibit 50% of the binding. The IC50 values were determined from 12-point competition curves using nonlinear regression (SYSTAT, SYSTAT, INC., Evanston, Ill.).

[3] = system: serum corticosterone; assay: serum corticosterone concentration in vivo in rats; set-up: species or system rat (male albino); conditions: 1 hour, series 0.03-3 mg/kg
Experimental: (§1) In another experiment certain compounds of the Examples were evaluated to determine ability to affect the 5-hydroxyindoles serotonin and 5-hydroxyindole acetic acid (5HIAA), and serum corticosterone, in vivo. Male albino rats were injected subcutaneously with an aqueous solution of the compound. The pH of the solution was adjusted as necessary to solubilize the compound. A control of the solution without the test compound was similarly injected into a control animal. The rats were decapitated one hour later. Trunk blood was collected and allowed to clot. After centrifugation, serum was stored frozen prior to analysis. The whole brain was removed and frozen on dry ice for storage prior to analysis. The serum corticosterone concentration was measured spectrofluorometrically using the procedure of Solem and Brinck-Johnson, "An Evaluation of a Method for Determination of Free Corticosteroids in Minute Quantities of Mouse Plasma", Scand. J. Clin. Lab. Invest., Suppl. 80, p. 1-14 (1965), incorporated herein by reference. 5-Hydroxyindoleacetic acid (5HIAA) concentration in whole brain was measured by liquid chromatography with electrochemical detection as reported by Fuller and Perry, "Effects of Buspirone and its Metabolite, 1-(2-pyrimidinyl)piperazine, on Brain Monoamines and Their Metabolites in Rats", J. Pharmacol. Exp. Ther., 248, p. 50-56 (1989), incorporated herein by reference.

[4] = system: serotonin; assay: whole brain serotonin concentration in vivo in rats; set-up: species or system rat (male albino); conditions: 1 hour, series 0.03-3 mg/kg
Experimental: as §1

[5] = system: 5-hydroxyindole acetic acid (5HIAA); assay: whole brain 5-hydroxyindoleacetic acid (5HIAA) concentration in vivo in rats; set-up: species or system rat (male albino); conditions: 1 hour, series 0.03-3 mg/kg
Experimental: as §1, with “The rats were decapitated one hour later.” left out

T1 sequence (F1MGM3 1-403): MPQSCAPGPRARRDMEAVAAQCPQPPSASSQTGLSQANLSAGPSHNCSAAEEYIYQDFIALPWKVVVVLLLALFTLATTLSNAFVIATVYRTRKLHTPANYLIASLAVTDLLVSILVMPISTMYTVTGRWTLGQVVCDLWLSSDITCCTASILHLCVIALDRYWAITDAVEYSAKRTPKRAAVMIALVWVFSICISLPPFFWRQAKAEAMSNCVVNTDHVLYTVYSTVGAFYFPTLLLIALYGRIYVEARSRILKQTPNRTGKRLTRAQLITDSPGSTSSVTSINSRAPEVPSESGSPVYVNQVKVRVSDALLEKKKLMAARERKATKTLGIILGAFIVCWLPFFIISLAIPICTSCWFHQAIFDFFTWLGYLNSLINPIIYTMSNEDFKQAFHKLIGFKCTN

SMILES	IC50 [1]	IC50 [2]	Serum Corticosterone ([3]; 0.03 mg/kg s.c.)	Serum Corticosterone ([3]; 0.3 mg/kg s.c.)	Serum Corticosterone ([3]; 3 mg/kg s.c.)	Serotonin ([4]; 0.03 mg/kg s.c.)	Serotonin ([4]; 0.3 mg/kg s.c.)	Serotonin ([4]; 3 mg/kg s.c.)	5HIAA ([5]; 0.03 mg/kg s.c.)	5HIAA ([5]; 0.3 mg/kg s.c.)	5HIAA ([5]; 3 mg/kg s.c.)
CCCN(CCC)[C@H]1Cc2c[nH]c3ccc(C(=O)c4ccccc4)c(c23)C1 [Example 10, (4R)-(+)-6-benzoyl-4-(di-n-propylamino)-1,3,4,5-tetrahydrobenz[cd]indole]	1.81 nM	0.22 nM	–	–	–	–	–	–	–	–	–
CCCN(CCC)C1Cc2c[nH]c3ccc(C(=O)C(C)(C)C)c(c23)C1 (racemic) [Example 1, (±)-6-(2,2-Dimethylpropanoyl)-4-(di-n-propylamino)-1,3,4,5-tetrahydrobenz[cd]indole]	2.01 nM	0.5 nM	8.2 ± 3.2 microg./100 ml	36.0 ± 4.8 microg./100 ml	44.2 ± 1.5 microg./100 ml	3.15 ± 0.13 nmol/g	3.45 ± 0.10 nmol/g	3.38 ± 0.08 nmol/g	1.58 ± 0.05 nmol/g	1.31 ± 0.03 nmol/g	1.23 ± 0.04 nmol/g
